# Values joined by “and” are separate entries in the source; they are usually repeats but may differ in a detail not shown here. Equal entries are not always repeated.
# Tested on: 556581-035-R-J1-PDC complex spheroid growth
# Assay: Anticancer human tumor 556581-035-R-J1-PDC patient-derived ovarian carcinoma cell line growth inhibition [AhR]
# Conditions: for viability, T/C: stronger effect = lower value
# Description: Multicellular complex tumor spheroid response to aryl hydrocarbon receptor antagonists in combination with a variety of drugs and investigational agents in selected tumor cell lines
# The current study was undertaken to assess response to aryl hydrocarbon receptor antagonists in combination with standard-of-care drugs and investigational agents in solid tumor complex spheroid models. Complex spheroids include a stromal component modeled by human endothelial cells (HUVEC) and fibroblasts modeled by human mesenchymal stem cells (MSCs). The concentration ranges selected for each drug and investigational agent were based upon clinically achievable concentrations if the clinical Cmax of the agent was known.
# Compounds. The drugs and investigational agents: BAY 2416964 (NSC825713), GNF351 (NSC835774), CH-223191 (NSC835775), CPI-455 (NSC825282), aza-TdCyd (NSC777586), decitabine (NSC127716), belinostat (NSC758774), entinostat (NSC756642), pevonedistat (NSC761192), tazemetostat (NSC777109), talazoparib (NSC765396), olaparib (NSC753686), selinexor (NSC780203), nedisertib (M3814, NSC802822), bortezomib (NSC756655), venetoclax (NSC766270), doxorubicin (NSC123127), elimusertib (BAY189344, NSC800525), ceralasertib (AZD6738, NSC777638), TAK-243 (NSC785004), alisertib (NSC759677), etoposide (NSC141540), topotecan (NSC609699), eribulin (NSC707389), gemcitabine (NSC613327), carboplatin (NSC241240), cisplatin (NSC119875), and SN-38 (NSC673596) were obtained from the National Cancer Institute (NCI) Developmental Therapeutics Program Chemical Repository (32). The FDA-approved anticancer drug set is available from the Developmental Therapeutics Program at https://dtp.cancer.gov/organization/dscb/obtaining/available plates.htm. […] The stock solutions were prepared in dimethyl sulfoxide (DMSO, Sigma-Aldrich, St. Louis, MO, cat. D2650), except for the platinum compounds which were prepared in saline (Quality Biological, Gaithersburg, MD, cat. 114-055-101), at 800-fold the tested concentration and stored at -70 degrees C prior to their use. All drugs and investigational agents were tested over a range starting from a high concentration at or near the clinical Cmax and decreasing in half-log increments. If the clinical Cmax for an agent had not been determined, the highest concentration tested was 10 microM (Table 1).
# Cell Culture. All cells were maintained in an incubator at 37 degrees C and 5% CO2 with 95% humidity. The PDC lines were cultured according to standard operating procedures established by the NCI PDMR (https://pdmr.cancer.gov). Briefly, all PDCs were thawed and cultured in Matrigel-coated flasks prepared with a working solution of 1X Ham's F-12 nutrient mix, without supplementation (Invitrogen, Waltham, MA, cat. 11765054), 100 U/mL penicillin-streptomycin (Invitrogen, cat. 15140122), and 2.5% Matrigel (Corning Inc., Corning, NY, cat. 354248) for the first three passages. All PDCs were cultured in complete DMEM/F-12 media containing advanced DMEM/F-12 (Invitrogen, cat. 12634028), 4.9% defined fetal bovine serum, heat inactivated (HyClone Laboratories Inc., Logan, UT, cat. SH30070.03HI), 389 ng/mL hydrocortisone (Sigma-Aldrich, cat. H4001), 9.7 ng/mL human EGF recombinant protein (Invitrogen, cat. PHG0313), 23.4 microg/mL adenine (Sigma-Aldrich, cat. A2786), 97.3 U/mL penicillin-streptomycin (Invitrogen, cat. 15140122), 1.9 mM L-glutamine (Invitrogen, cat. 25030081), and 9.7 microM Y-27632 dihydrochloride (Tocris Bioscience, Bristol, United Kingdom, cat. 1254). The PDCs were cultured in complete DMEM/F12 media without 10 microM Y-27632 dihydrochloride for at least two passages prior to the screen. The established cell lines NCI-H1341 and […] were cultured in DMEM/F-12, HEPES (Invitrogen, cat. 11330032), 5% defined fetal bovine serum (HyClone Laboratories Inc., cat. SH30070.03), ITS premix universal culture supplement [insulin (5 microg/mL), transferrin (5 microg/mL), and selenious acid (5 ng/mL)] […]
# [1] = curve of first compound, second compound 0.1 µM
# [2] = curve of first compound, second compound 0.316 µM
# [3] = curve of first compound, second compound 1 µM
# [4] = curve of first compound, second compound 3.16 µM
# [5] = curve of first compound, second compound 10 µM
# [6] = second compound 0.1 µM, first compound 0.0316 µM
# [7] = second compound 0.1 µM, first compound 0.1 µM
# [8] = second compound 0.1 µM, first compound 0.316 µM
# [9] = second compound 0.1 µM, first compound 1 µM
# [10] = second compound 0.1 µM, first compound 3.16 µM
# [11] = second compound 0.1 µM, first compound 10 µM
# [12] = second compound 0.316 µM, first compound 0.0316 µM
# [13] = second compound 0.316 µM, first compound 0.1 µM
# [14] = second compound 0.316 µM, first compound 0.316 µM
# [15] = second compound 0.316 µM, first compound 1 µM
# [16] = second compound 0.316 µM, first compound 3.16 µM
# [17] = second compound 0.316 µM, first compound 10 µM
# [18] = second compound 1 µM, first compound 0.0316 µM
# [19] = second compound 1 µM, first compound 0.1 µM
# [20] = second compound 1 µM, first compound 0.316 µM
# [21] = second compound 1 µM, first compound 1 µM
# [22] = second compound 1 µM, first compound 3.16 µM
# [23] = second compound 1 µM, first compound 10 µM
# [24] = second compound 3.16 µM, first compound 0.0316 µM
# [25] = second compound 3.16 µM, first compound 0.1 µM
# [26] = second compound 3.16 µM, first compound 0.316 µM
# [27] = second compound 3.16 µM, first compound 1 µM
# [28] = second compound 3.16 µM, first compound 3.16 µM
# [29] = second compound 3.16 µM, first compound 10 µM
# [30] = second compound 10 µM, first compound 0.0316 µM
# [31] = second compound 10 µM, first compound 0.1 µM
# [32] = second compound 10 µM, first compound 0.316 µM
# [33] = second compound 10 µM, first compound 1 µM
# [34] = second compound 10 µM, first compound 3.16 µM
# [35] = second compound 10 µM, first compound 10 µM
# 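For viability, T/C in this document: compound exposure lasted 7 days; 100% = DMSO vehicle control growth.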
smiles,measurement,setting,value
O=C(c1cc(Cc2n[nH]c(=O)c3ccccc23)ccc1F)N1CCN(C(=O)C2CC2)CC1 + Cc1cncc(-c2nc(NCCc3c[nH]c4ccccc34)c3ncn(C(C)C)c3n2)c1,IC50,[1],> 10000 nM
same,IC50,[2],> 10000 nM
same,IC50,[3],> 10000 nM
same,IC50,[4],> 10000 nM
same,IC50,[5],> 10000 nM
same,"viability, T/C",[6],98.4%
same,"viability, T/C",[7],107%
same,"viability, T/C",[8],101%
same,"viability, T/C",[9],89.6%
same,"viability, T/C",[10],94.6%
same,"viability, T/C",[11],82%
same,"viability, T/C",[12],112%
same,"viability, T/C",[13],105%
same,"viability, T/C",[14],104%
same,"viability, T/C",[15],91.2%
same,"viability, T/C",[16],91.9%
same,"viability, T/C",[17],78.9%
same,"viability, T/C",[18],108%
same,"viability, T/C",[19],102%
same,"viability, T/C",[20],99.3%
same,"viability, T/C",[21],95.9%
same,"viability, T/C",[22],98.8%
same,"viability, T/C",[23],90.2%
same,"viability, T/C",[24],104%
same,"viability, T/C",[25],108%
same,"viability, T/C",[26],95.3%
same,"viability, T/C",[27],89.2%
same,"viability, T/C",[28],94.3%
same,"viability, T/C",[29],81.3%
same,"viability, T/C",[30],90%
same,"viability, T/C",[31],95.4%
same,"viability, T/C",[32],95.2%
same,"viability, T/C",[33],86.2%
same,"viability, T/C",[34],92.7%
same,"viability, T/C",[35],83.2%
Nc1ccn(C2OC(CO)C(O)C2(F)F)c(=O)n1 (centres undefined) + Cc1cncc(-c2nc(NCCc3c[nH]c4ccccc34)c3ncn(C(C)C)c3n2)c1,IC50,[1],< 31.6 nM
same,IC50,[2],< 31.6 nM
same,IC50,[3],< 31.6 nM
same,IC50,[4],< 31.6 nM
same,IC50,[5],6070 nM
same,"viability, T/C",[6],32.8%
same,"viability, T/C",[7],34.5%
same,"viability, T/C",[8],35.8%
same,"viability, T/C",[9],32.9%
same,"viability, T/C",[10],34.1%
same,"viability, T/C",[11],28.2%
same,"viability, T/C",[12],34.5%
same,"viability, T/C",[13],34.9%
same,"viability, T/C",[14],37%
same,"viability, T/C",[15],37.6%
same,"viability, T/C",[16],29.2%
same,"viability, T/C",[17],32.7%
same,"viability, T/C",[18],31.8%
same,"viability, T/C",[19],36.1%
same,"viability, T/C",[20],36%
same,"viability, T/C",[21],36.5%
same,"viability, T/C",[22],32.7%
same,"viability, T/C",[23],28.6%
same,"viability, T/C",[24],43.3%
same,"viability, T/C",[25],45.4%
same,"viability, T/C",[26],44.3%
same,"viability, T/C",[27],45.9%
same,"viability, T/C",[28],38.2%
same,"viability, T/C",[29],33%
same,"viability, T/C",[30],55.7%
same,"viability, T/C",[31],64.2%
same,"viability, T/C",[32],57%
same,"viability, T/C",[33],62.7%
same,"viability, T/C",[34],48.1%
same,"viability, T/C",[35],48.6%
O=C(C=Cc1cccc(S(=O)(=O)Nc2ccccc2)c1)NO,"viability, T/C",compound 0.0316 µM,104% and 98.7% and 101%
same,"viability, T/C",compound 0.1 µM,105% and 99.7% and 84.2%
same,"viability, T/C",compound 0.316 µM,85.4% and 76.4% and 76.7%
same,"viability, T/C",compound 1 µM,54.8% and 58.9% and 56.1%
same,"viability, T/C",compound 3.16 µM,25.9% and 28.1% and 21.8%
same,"viability, T/C",compound 10 µM,3.85% and 5.28% and 4.17%
same,IC50,curve of compound,1250 nM and 1330 nM and 1110 nM
COc1cc(C2c3cc4c(cc3C(OC3OC5COC(C)OC5C(O)C3O)C3COC(=O)C23)OCO4)cc(OC)c1O (centres undefined),"viability, T/C",compound 0.0316 µM,104% and 107% and 99.2%
same,"viability, T/C",compound 0.1 µM,103% (2×) and 100%
same,"viability, T/C",compound 0.316 µM,84.9% and 82.3% and 74.7%
same,"viability, T/C",compound 1 µM,78.2% and 84.1% and 76.3%
same,"viability, T/C",compound 3.16 µM,62.1% and 66.4% and 67.5%
same,"viability, T/C",compound 10 µM,45.1% and 44.2% and 47.1%
same,IC50,curve of compound,7210 nM and 8060 nM and 9560 nM
CC[C@@]1(O)C(=O)OCc2c1cc1n(c2=O)Cc2cc3c(CN(C)C)c(O)ccc3nc2-1 + CC(CO)NC(=O)c1cc(-c2ccc(Cl)cc2)nn(-c2cnn(C)c2)c1=O,IC50,[1],> 100 nM
same,IC50,[2],> 100 nM
same,IC50,[3],> 100 nM
same,IC50,[4],87.8 nM
same,IC50,[5],84.6 nM
same,"viability, T/C","second compound 0.1 µM, first compound 0.000316 µM",102%
same,"viability, T/C","second compound 0.1 µM, first compound 0.001 µM",95.5%
same,"viability, T/C","second compound 0.1 µM, first compound 0.00316 µM",90.4%
same,"viability, T/C","second compound 0.1 µM, first compound 0.01 µM",86.8%
same,"viability, T/C",[6],69.7%
same,"viability, T/C",[7],51.7%
same,"viability, T/C","second compound 0.316 µM, first compound 0.000316 µM",97.2%
same,"viability, T/C","second compound 0.316 µM, first compound 0.001 µM",98%
same,"viability, T/C","second compound 0.316 µM, first compound 0.00316 µM",92.9%
same,"viability, T/C","second compound 0.316 µM, first compound 0.01 µM",80.6%
same,"viability, T/C",[12],69.5%
same,"viability, T/C",[13],58.6%
same,"viability, T/C","second compound 1 µM, first compound 0.000316 µM",101%
same,"viability, T/C","second compound 1 µM, first compound 0.001 µM",110%
same,"viability, T/C","second compound 1 µM, first compound 0.00316 µM",93.6%
same,"viability, T/C","second compound 1 µM, first compound 0.01 µM",80.8%
same,"viability, T/C",[18],75%
same,"viability, T/C",[19],57.3%
same,"viability, T/C","second compound 3.16 µM, first compound 0.000316 µM",90.5%
same,"viability, T/C","second compound 3.16 µM, first compound 0.001 µM",97%
same,"viability, T/C","second compound 3.16 µM, first compound 0.00316 µM",91.4%
same,"viability, T/C","second compound 3.16 µM, first compound 0.01 µM",78.2%
same,"viability, T/C",[24],65.9%
same,"viability, T/C",[25],47.8%
same,"viability, T/C","second compound 10 µM, first compound 0.000316 µM",100%
same,"viability, T/C","second compound 10 µM, first compound 0.001 µM",101%
same,"viability, T/C","second compound 10 µM, first compound 0.00316 µM",94.7%
same,"viability, T/C","second compound 10 µM, first compound 0.01 µM",93.2%
same,"viability, T/C",[30],70.5%
same,"viability, T/C",[31],46.5%

# Source: PubChem BioAssay AID1918999 (Molecular Pharmacology Branch, DTP, NCI, 2023)
